The text below walks through data of patent US7544707B2, “Bicyclic derivatives as PPAR modulators” (Eli Lilly and Company, priority 2003, dated 2009).

SMILES strings stand for the structures.

Broadly, the melting point is the temperature of the solid-liquid transition. Take `Cc1cc(OC(C)c2cccc3c2cnn3-c2ccc(C(F)(F)F)cc2)ccc1OC(C)(C)C(=O)O` (racemic) [Example 82, (+/−)-2-Methyl-2-(2-methyl-4-{1-[1-(4-trifluoromethylphenyl)-1H-indazol-4-yl]ethoxy}phenoxy)propionic Acid]: the melting point is 82 to 85 °C.

As to `CC(C)(Oc1ccc(OCc2ccc3cn(-c4ccc(C(F)(F)F)cc4)nc3c2)cc1)C(=O)O` [Example 52, 2-Methyl-2-{4-[2-(4-trifluoromethylphenyl)-2H-indazol-6-ylmethoxy]phenoxy}propionic Acid], the melting point lay in the range of 199 to 201 °C.

Turning to `Cc1cc(SC(CCC(F)(F)F)c2cccc3c2cnn3-c2ccc(C(F)(F)F)cc2)ccc1OC(C)(C)C(=O)O` (racemic) [Example 88, (+/−)-2-Methyl-2-(2-methyl-4-{4,4,4-trifluoro-1-[1-(4-trifluoromethylphenyl)-1H-indazol-4-yl]butylsulfanyl}phenoxy)propionic Acid], the melting point lay within 205 to 210 °C.

In turn, `CC(C)(Sc1ccc(OCc2cccc3cnn(-c4ccc(C(F)(F)F)cc4)c23)cc1)C(=O)O` [Example 97, 2-Methyl-2-{4-[1-(4-trifluoromethylphenyl)-1H-indazol-7-ylmethoxy]phenylsulfanyl}propionic Acid] gave a melting point of 214 to 216 °C.

Compound `CC(Oc1ccc(OC(C)(C)C(=O)O)cc1)c1ccc2cn(-c3ccc(C(F)(F)F)cc3)nc2c1` (racemic) [Example 58, (+/−)-2-Methyl-2-(4-{1-[2-(4-trifluoromethylphenyl)-2H-indazol-6-yl]ethoxy}phenoxy)propionic Acid] had a melting point of 144 to 146 °C.

Regarding `CCc1cc(SC(C)(C)c2cccc3cn(-c4ccc(C(F)(F)F)cc4)nc23)ccc1OCC(=O)O` [Example 16, 2-Ethyl-4-{1-methyl-1-[2-(4-trifluoromethylphenyl)-2H-indazol-7-yl]ethylsulfanyl}phenoxyacetic Acid], the melting point lay within 114 to 116 °C.

In turn, `Cc1cc(SC(C)c2cccc3nn(-c4ccc(C(F)(F)F)cc4)cc23)ccc1OC(C)(C)C(=O)O` (racemic) [Example 72, (+/−)-2-Methyl-2-(2-methyl-4-{1-[2-(4-trifluoromethylphenyl)-2H-indazol-4-yl]ethylsulfanyl}phenoxy)propionic Acid] yielded a melting point of 153 to 155 °C.

For `Cc1cc(OCc2ccc3cn(-c4ccc(C(F)(F)F)cc4)nc3c2)ccc1CCC(=O)O` [Example 24, 3-{2-Methyl-4-[2-(4-trifluoromethylphenyl)-2H-indazol-6-ylmethoxy]phenyl}propionic Acid], the melting point was 181 to 183 °C.

Compound `Cc1cc(SCc2cccc3c2cnn3-c2ccc(C(F)(F)F)cc2)ccc1OC(C)(C)C(=O)O` [Example 78, 2-Methyl-2-{2-methyl-4-[1-(4-trifluoromethylphenyl)-1H-indazol-4-ylmethylsufanyl]phenoxy}propionic Acid] gave a melting point of 62 to 66 °C.

Consider `CC(C)(Sc1ccc(OC(CCC(F)(F)F)c2cccc3c2cnn3-c2ccc(C(F)(F)F)cc2)cc1)C(=O)O` (racemic) [Example 89, (+/−)-2-Methyl-2-(4-{4,4,4-trifluoro-1-[1-(4-trifluoromethylphenyl)-1H-indazol-4-yl]butoxy}phenylsulfanyl)propionic Acid], for which the melting point was > 260 °C.

Regarding `Cc1cc(OCc2cccc3cn(-c4ccc(C(F)(F)F)cc4)nc23)ccc1OC(C)(C)C(=O)O` [Example 37, 2-Methyl-2-{2-methyl-4-[2-(4-trifluoromethylphenyl)-2H-indazol-7-ylmethoxy]phenoxy}propionic Acid], the melting point lay in the range of 165 to 167 °C.

Regarding `Cc1cc(SCc2cccc3c2cnn3-c2ccc(C(F)(F)F)cc2)ccc1CCC(=O)O` [Example 32, 3-{2-Methyl-4-[1-(4-trifluoromethylphenyl)-1H-indazol-4-ylmethylsulfanyl]phenyl}propionic Acid], the melting point was in the range of 113 to 115 °C.

`CC(C)(Oc1ccc(COCc2ccc3cn(-c4ccc(C(F)(F)F)cc4)nc3c2)cc1)C(=O)O` [Example 56, 2-Methyl-2-{4-[2-(4-trifluoromethylphenyl)-2H-indazol-6-ylmethoxymethyl]phenoxy}propionic Acid] had a melting point of 129 to 131 °C.

Regarding `Cc1cc(SCCc2cccc3cn(-c4ccc(C(F)(F)F)cc4)nc23)ccc1OC(C)(C)C(=O)O` [Example 49, 2-Methyl-2-(2-methyl-4-{2-[2-(4-trifluoromethylphenyl)-2H-indazol-7-yl]ethylsulfanyl}phenoxy)propionic Acid], the melting point lay in the range of 141 to 143 °C.

With `CCc1cc(SCc2cccc3c2cnn3-c2ccc(C(F)(F)F)cc2)ccc1OCC(=O)O` [Example 31, 2-Ethyl-4-[1-(4-trifluoromethylphenyl)-1H-indazol-4-ylmethylsulfanyl]phenoxyacetic Acid], the melting point lay in the range of 122 to 124 °C.

For `O=C(O)Cc1cccc(SCc2cccc3cn(-c4ccc(C(F)(F)F)cc4)nc23)c1` [Example 4, 3-[2-(4-Trifluoromethylphenyl)-2H-indazol-7-ylmethylsulfanyl]phenylacetic Acid], the melting point was 147 to 149 °C.

Consider `Cc1cc(SCc2ccc3cn(-c4ccc(C(F)(F)F)cc4)nc3c2)ccc1OCC(=O)O` [Example 19, 2-Methyl-4-[2-(4-trifluoromethylphenyl)-2H-indazol-6-ylmethylsulfanyl]phenoxyacetic Acid], for which the melting point was 142 to 144 °C.

In turn, `CC(Oc1ccc(SC(C)(C)C(=O)O)cc1)c1cccc2nn(-c3ccc(C(F)(F)F)cc3)cc12` (racemic) [Example 76, (+/−)-2-Methyl-2-(4-{1-[2-(4-trifluoromethyl-phenyl)-2H-indazol-4-yl]ethoxy}phenylsulfanyl)propionic Acid] yielded a melting point of 138 to 140 °C.

As to `CC(C)(Sc1ccc2c(CC(=O)O)csc2c1)c1cccc2cn(-c3ccc(C(F)(F)F)cc3)nc12` [Example 17, 6-{1-Methyl-1-[2-(4-trifluoromethylphenyl)-2H-indazol-7-yl]ethylsulfanyl}benzo[b]thiophen-3-ylacetic Acid], the melting point was in the range of 120 to 122 °C.

For the compound `Cc1cc(SC(C)c2cccc3c2cnn3-c2ccc(C(F)(F)F)cc2)ccc1OC(C)(C)C(=O)O` (racemic) [Example 83, (+/−)-2-Methyl-2-(2-methyl-4-{1-[1-(4-trifluoromethylphenyl)-1H-indazol-4-yl]ethylsulfanyl}phenoxy)propionic Acid], the melting point lay within 85 to 87 °C.

Regarding `CC(C)(Oc1ccc(SCc2ccc3nn(-c4ccc(C(F)(F)F)cc4)cc3c2)cc1)C(=O)O` [Example 63, 2-Methyl-2-{4-[2-(4-trifluoromethylphenyl)-2H-indazol-5-ylmethylsulfanyl]phenoxy}propionic Acid], the melting point is 159 to 161 °C.

Take `Cc1cc(SCc2cccc3cnn(-c4ccc(C(F)(F)F)cc4)c23)ccc1OCC(=O)O` [Example 34, 2-Methyl-4-[1-(4-trifluoromethylphenyl)-1H-indazol-7-ylmethylsulfanyl]phenoxyacetic Acid]: the melting point fell in the range of 118 to 121 °C.

On to `CC(C)(Oc1ccc(OCc2cccc3cnn(-c4ccc(C(F)(F)F)cc4)c23)cc1)C(=O)O` [Example 100, 2-Methyl-1-2-{4-[1-(4-trifluoromethylphenyl)-1H-indazol-7-ylmethoxy]phenoxy}propionic Acid], for which the melting point lay within 146 to 149 °C.

Regarding `CC(Sc1ccc2c(CC(=O)O)csc2c1)c1cccc2cn(-c3ccc(C(F)(F)F)cc3)nc12` (racemic) [Example 11, (+/−)-6-{1-[2-(4-Trifluoromethylphenyl)-2H-indazol-7-yl]ethylsulfanyl}benzo[b]thiophen-3-ylacetic Acid], the melting point was 76 to 78 °C.

Compound `CC(C)(Oc1ccc(OC(CCC(F)(F)F)c2cccc3c2cnn3-c2ccc(C(F)(F)F)cc2)cc1)C(=O)O` (racemic) [Example 90, (+/−)-2-Methyl-2-(4-{4,4,4-trifluoro-1-[1-(4-trifluoromethylphenyl)-1H-indazol-4-yl]butoxy}phenoxy)propionic Acid] registered a melting point of 175 to 180 °C.

In turn, `Cc1cc(OC(C)c2cccc3nn(-c4ccc(C(F)(F)F)cc4)cc23)ccc1OC(C)(C)C(=O)O` (racemic) [Example 74, (+/−)-2-Methyl-2-(2-methyl-4-{1-[2-(4-trifluoromethylphenyl)-2H-indazol-4-yl]ethoxy}phenoxy)propionic Acid] yielded a melting point of 130 to 132 °C.

The compound `Cc1cc(SC(C)c2cccc3cn(-c4ccc(C(F)(F)F)cc4)nc23)ccc1OCC(=O)O` (racemic) [Example 8, (+/−)-2-Methyl-4-{1-[2-(4-trifluoromethylphenyl)-2H-indazol-7-yl]ethylsulfanyl}phenoxyacetic Acid] registered a melting point of 62 to 64 °C.

`Cc1cc(SCc2cccc3nn(-c4ccc(C(F)(F)F)cc4)cc23)ccc1CCC(=O)O` [Example 28, 3-{2-Methyl-4-[2-(4-trifluoromethylphenyl)-2H-indazol-4-ylmethylsulfanyl]phenyl}propionic Acid]: the melting point lay in the range of 55 to 59 °C.

`Cc1cc(SC(C)(C)c2cccc3cn(-c4ccc(C(F)(F)F)cc4)nc23)ccc1CCC(=O)O` [Example 15, 3-(2-Methyl-4-{1-methyl-1-[2-(4-trifluoromethylphenyl)-2H-indazol-7-yl]ethylsulfanyl}phenyl)propionic Acid] came in with a melting point of 68 to 70 °C.

`Cc1cc(SCc2cccc3cn(-c4ccc(C(F)(F)F)cc4)nc23)ccc1CCC(=O)O` [Example 2, 3-{2-Methyl-4-[2-(4-trifluoromethylphenyl)-2H-indazol-7-ylmethylsulfanyl]phenyl}propionic Acid] displayed a melting point of 88 to 90 °C.

Compound `CC(C)(Sc1ccc(OCc2ccc3cn(-c4ccc(C(F)(F)F)cc4)nc3c2)cc1)C(=O)O` [Example 55, 2-Methyl-2-{4-[2-(4-trifluoromethylphenyl)-2H-indazol-6-ylmethoxy]phenylsulfanyl}propionic Acid] yielded a melting point of 133 to 135 °C.

As to `Cc1cc(SCc2ccc3cn(-c4ccc(C(F)(F)F)cc4)nc3c2)ccc1OC(C)(C)C(=O)O` [Example 53, 2-Methyl-2-{2-methyl-4-[2-(4-trifluoromethylphenyl)-2H-indazol-6-ylmethylsulfanyl]phenoxy}propionic Acid], the melting point was in the range of 116 to 118 °C.
